According to ChEMBL document CHEMBL5291721, “A preclinical secondary pharmacology resource illuminates target-adverse drug reaction associations of marketed drugs” (Nat Commun, 2023):

Legend:
[1] = molecular target: Beta-2 adrenergic receptor (Homo sapiens, UniProt P07550); assay type: functional, cell-based
[2] = molecular target: Glutamate receptor ionotropic, NMDA 1 (Rattus norvegicus, UniProt P35439)
[3] = molecular target: T1, 5-hydroxytryptamine receptor 2B (Homo sapiens, UniProt P41595); assay type: functional, cell-based
T1 sequence (P41595 whole entry): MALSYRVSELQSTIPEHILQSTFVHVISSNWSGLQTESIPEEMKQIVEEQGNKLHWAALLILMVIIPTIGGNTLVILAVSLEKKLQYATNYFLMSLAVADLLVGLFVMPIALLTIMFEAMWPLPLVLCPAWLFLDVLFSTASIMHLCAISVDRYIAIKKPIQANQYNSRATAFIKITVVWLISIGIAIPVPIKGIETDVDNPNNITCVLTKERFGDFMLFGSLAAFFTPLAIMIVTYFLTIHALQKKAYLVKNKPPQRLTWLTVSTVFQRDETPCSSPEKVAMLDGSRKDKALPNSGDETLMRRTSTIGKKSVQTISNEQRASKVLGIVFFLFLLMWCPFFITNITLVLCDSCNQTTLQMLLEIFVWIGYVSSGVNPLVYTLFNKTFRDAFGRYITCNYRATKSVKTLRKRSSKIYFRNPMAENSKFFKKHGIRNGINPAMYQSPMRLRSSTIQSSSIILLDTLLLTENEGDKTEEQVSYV

[4] = molecular target: T1, 5-hydroxytryptamine receptor 2B; assay type: functional, cell-based; remark: listed apart in the source
[5] = molecular target: Delta-type opioid receptor (Homo sapiens, UniProt P41143)
Delta-type opioid receptor, sequence (P41143 whole entry): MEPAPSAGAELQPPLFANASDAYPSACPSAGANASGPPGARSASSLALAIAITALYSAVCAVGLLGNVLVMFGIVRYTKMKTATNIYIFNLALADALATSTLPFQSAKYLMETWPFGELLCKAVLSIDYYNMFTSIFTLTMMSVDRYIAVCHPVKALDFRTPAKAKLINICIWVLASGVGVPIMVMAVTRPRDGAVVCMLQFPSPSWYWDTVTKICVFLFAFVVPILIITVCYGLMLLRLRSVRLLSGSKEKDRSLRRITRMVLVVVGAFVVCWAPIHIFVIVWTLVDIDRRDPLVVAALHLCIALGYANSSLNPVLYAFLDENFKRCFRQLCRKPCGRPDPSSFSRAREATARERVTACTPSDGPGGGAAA

[6] = molecular target: T2, Amine oxidase [flavin-containing] A (Homo sapiens, UniProt P21397); assay type: functional
T2 sequence (P21397 whole entry): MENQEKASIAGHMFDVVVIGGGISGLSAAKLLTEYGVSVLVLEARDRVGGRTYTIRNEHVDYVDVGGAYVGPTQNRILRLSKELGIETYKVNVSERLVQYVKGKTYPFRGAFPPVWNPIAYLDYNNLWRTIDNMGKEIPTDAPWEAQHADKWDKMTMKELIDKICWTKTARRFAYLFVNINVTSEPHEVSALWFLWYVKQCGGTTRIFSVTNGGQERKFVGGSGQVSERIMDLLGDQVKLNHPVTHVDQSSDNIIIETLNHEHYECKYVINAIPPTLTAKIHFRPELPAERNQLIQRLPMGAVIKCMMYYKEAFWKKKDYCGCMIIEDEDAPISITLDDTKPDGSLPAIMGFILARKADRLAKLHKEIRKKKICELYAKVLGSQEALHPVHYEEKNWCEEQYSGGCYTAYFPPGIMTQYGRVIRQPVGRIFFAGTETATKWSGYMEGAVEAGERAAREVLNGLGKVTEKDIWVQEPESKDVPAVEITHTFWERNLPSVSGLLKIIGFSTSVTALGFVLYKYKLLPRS

[7] = molecular target: T3, Adenosine receptor A1 (Homo sapiens, UniProt P30542)
T3 sequence (P30542 whole entry): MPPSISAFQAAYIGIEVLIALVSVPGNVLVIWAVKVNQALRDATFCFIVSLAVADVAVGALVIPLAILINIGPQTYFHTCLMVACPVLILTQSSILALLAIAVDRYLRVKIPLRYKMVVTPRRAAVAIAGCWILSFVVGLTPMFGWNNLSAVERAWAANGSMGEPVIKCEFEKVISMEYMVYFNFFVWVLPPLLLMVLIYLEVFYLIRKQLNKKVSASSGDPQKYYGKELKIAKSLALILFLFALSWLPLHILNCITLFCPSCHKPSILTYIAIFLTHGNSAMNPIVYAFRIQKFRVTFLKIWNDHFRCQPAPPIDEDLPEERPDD

[8] = molecular target: T4, Adenosine receptor A3 (Homo sapiens, UniProt P0DMS8)
T4 sequence (P0DMS8 whole entry): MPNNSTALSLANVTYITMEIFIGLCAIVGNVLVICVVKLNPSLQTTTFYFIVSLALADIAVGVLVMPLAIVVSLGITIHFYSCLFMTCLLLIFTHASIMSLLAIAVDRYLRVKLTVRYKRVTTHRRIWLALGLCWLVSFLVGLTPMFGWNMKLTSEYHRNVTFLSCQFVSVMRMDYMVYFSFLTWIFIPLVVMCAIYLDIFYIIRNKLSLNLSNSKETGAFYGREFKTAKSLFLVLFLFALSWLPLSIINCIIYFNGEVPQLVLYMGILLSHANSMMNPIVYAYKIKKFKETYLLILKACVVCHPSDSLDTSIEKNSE

[9] = molecular target: Melanocortin receptor 3 (Homo sapiens, UniProt P41968)
Melanocortin receptor 3, sequence (P41968 whole entry): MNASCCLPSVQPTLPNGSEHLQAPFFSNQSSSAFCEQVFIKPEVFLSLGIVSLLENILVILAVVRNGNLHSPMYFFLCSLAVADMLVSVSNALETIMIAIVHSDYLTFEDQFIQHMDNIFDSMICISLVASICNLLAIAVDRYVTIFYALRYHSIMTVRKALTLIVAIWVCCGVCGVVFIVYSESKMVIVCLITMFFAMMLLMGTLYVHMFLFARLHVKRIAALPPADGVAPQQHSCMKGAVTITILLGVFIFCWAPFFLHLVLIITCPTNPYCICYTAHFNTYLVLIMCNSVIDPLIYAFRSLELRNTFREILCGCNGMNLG

[10] = molecular target: T4, Adenosine receptor A3; remark: listed apart in the source
[11] = molecular target: T5, Progesterone receptor (Homo sapiens, UniProt P06401); assay type: functional
T5 sequence (P06401 whole entry): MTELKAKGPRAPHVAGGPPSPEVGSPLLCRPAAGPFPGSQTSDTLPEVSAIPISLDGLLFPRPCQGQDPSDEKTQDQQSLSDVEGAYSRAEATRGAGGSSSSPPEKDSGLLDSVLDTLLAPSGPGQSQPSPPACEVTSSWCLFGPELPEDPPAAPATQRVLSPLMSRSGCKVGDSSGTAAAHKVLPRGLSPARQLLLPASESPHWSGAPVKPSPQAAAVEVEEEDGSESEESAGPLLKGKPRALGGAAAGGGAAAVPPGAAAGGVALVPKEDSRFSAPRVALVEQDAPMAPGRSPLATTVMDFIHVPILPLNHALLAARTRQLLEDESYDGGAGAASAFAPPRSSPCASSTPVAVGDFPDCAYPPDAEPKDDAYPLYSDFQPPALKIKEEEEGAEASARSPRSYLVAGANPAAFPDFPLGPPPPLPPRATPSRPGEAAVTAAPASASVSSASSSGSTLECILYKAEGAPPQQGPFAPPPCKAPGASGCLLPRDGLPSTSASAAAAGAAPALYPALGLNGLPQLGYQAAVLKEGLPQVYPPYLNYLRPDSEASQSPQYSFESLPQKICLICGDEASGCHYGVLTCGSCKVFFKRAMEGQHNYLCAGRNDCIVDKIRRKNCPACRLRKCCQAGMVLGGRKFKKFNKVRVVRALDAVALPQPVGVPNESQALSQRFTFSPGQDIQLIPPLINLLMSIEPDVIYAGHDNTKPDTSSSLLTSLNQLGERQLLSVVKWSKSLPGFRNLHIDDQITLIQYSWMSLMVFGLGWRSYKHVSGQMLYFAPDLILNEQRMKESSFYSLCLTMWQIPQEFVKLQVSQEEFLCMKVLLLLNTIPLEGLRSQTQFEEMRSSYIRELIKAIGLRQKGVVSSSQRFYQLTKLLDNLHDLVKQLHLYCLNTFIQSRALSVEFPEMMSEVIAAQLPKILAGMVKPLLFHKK
Further: assay procedure not described here.

Beta-2 adrenergic receptor, sequence (P07550 whole entry): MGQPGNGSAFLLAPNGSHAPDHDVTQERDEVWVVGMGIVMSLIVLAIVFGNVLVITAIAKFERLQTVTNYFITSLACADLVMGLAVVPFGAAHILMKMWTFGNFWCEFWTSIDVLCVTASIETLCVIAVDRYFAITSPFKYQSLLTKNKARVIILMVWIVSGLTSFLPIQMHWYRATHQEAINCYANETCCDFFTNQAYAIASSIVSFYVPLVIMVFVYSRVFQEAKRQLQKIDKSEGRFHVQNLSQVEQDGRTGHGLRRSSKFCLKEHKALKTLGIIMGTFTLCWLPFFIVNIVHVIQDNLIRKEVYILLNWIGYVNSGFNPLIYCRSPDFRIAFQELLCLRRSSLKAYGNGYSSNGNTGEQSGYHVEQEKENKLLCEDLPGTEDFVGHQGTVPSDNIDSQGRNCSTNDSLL

Row | Compound | AC50 [1] [µM] | AC50 [2] [µM] | AC50 [3] [µM] | AC50 [4] [µM] | AC50 [5] [µM] | AC50 [6] [µM] | AC50 [7] [µM] | AC50 [8] [µM] | AC50 [9] [µM] | AC50 [10] [µM] | AC50 [11] [µM]
1 | CC(C)NC(=N)NC(=N)Nc1ccc(Cl)c(Cl)c1 [CHLORPROGUANIL] | > 30 | > 30 | > 30 | 12.2 | > 30 | > 30 |  |  |  |  | 
2 | CCCNC(=O)NS(=O)(=O)c1ccc(Cl)cc1 [CHLORPROPAMIDE] | > 30 | > 10 | > 10 | > 10 | > 30 | > 10 | > 30 | > 30 | > 30 |  | 
3 | Cc1cc(C2CCCCC2)n(O)c(=O)c1 [CICLOPIROX] |  |  |  |  |  | > 30 |  | > 30 | > 30 | > 30 | > 30
4 | C[N+](C)(C)CCOP(=O)(O)OP(=O)([O-])OC[C@H]1O[C@@H](n2ccc(N)nc2=O)[C@H](O)[C@@H]1O [CITICOLINE] | > 30 | > 30 | > 30 | > 30 | > 30 | > 30 |  |  |  |  | 
5 | Clc1ccc(Cn2c(CN3CCCC3)nc3ccccc32)cc1 [CLEMIZOLE] | > 30 |  | 0.67 |  | > 30 | > 30 | > 30 | > 30 | > 30 |  | 
6 | CC[C@H](C)C(=O)O[C@H]1C[C@@H](C)C=C2C=C[C@H](C)[C@H](CC[C@@H]3C[C@@H](O)CC(=O)O3)[C@H]21 [LOVASTATIN] | > 30 | > 10 | > 10 | 23 | > 30 | > 10 | > 30 | 28.5 | > 30 |  | 
7 | CC[C@@H](CO)NC(=O)[C@@H]1C=C2c3cccc4c3c(cn4C)C[C@H]2N(C)C1 [METHYSERGIDE] | > 30 | > 10 |  |  | > 30 | > 10 | > 30 | > 30 | > 30 |  | 
8 | CCCCC1C(=O)N(c2ccccc2)N(c2ccc(O)cc2)C1=O (stereo not drawn) [OXYPHENBUTAZONE ANHYDROUS] |  |  |  |  |  |  |  |  |  | > 30 | 
9 | O=C(O)CN(CCN(CC(=O)O)CC(=O)O)CCN(CC(=O)O)CC(=O)O [PENTETIC ACID] |  |  |  |  |  |  |  |  |  | > 30 | 
10 | Nc1cccc2c1C(=O)N(C1CCC(=O)NC1=O)C2=O (stereo not drawn) [POMALIDOMIDE] |  |  |  |  |  |  |  |  |  | > 30 | 
11 | CC(CN1c2ccccc2Sc2ccccc21)N(C)C (stereo not drawn) [PROMETHAZINE] | > 30 | > 10 | > 10 | 1.4 | > 30 | > 10 | > 30 | > 30 | 31.9 |  | 
12 | C[Se]CC[C@H](N)C(=O)O [SELENOMETHIONINE] |  |  |  |  |  |  |  |  |  | > 30 | 
13 | C[N+](C)(C)CCOC(=O)CCC(=O)OCC[N+](C)(C)C [SUXAMETHONIUM] |  |  |  |  |  |  |  |  |  | > 30 | 
14 | Cc1ccsc1C(=CCCN1CCC[C@@H](C(=O)O)C1)c1sccc1C [TIAGABINE] |  |  |  |  |  |  |  |  |  | > 30 | 
15 | Cc1ccc(C(=O)c2ccc(CC(=O)O)n2C)cc1 [TOLMETIN] |  |  |  |  |  |  |  |  |  | > 30 | 
16 | Cc1ccccc1C(=O)Nc1ccc(C(=O)N2CCCC(O)c3cc(Cl)ccc32)c(C)c1 (stereo not drawn) [TOLVAPTAN] |  |  |  |  |  |  |  |  |  | 11 | 
17 | C[C@]12C=CC(=O)C=C1CC[C@H]1[C@@H]3C[C@@H](O)[C@](O)(C(=O)CO)[C@@]3(C)C[C@H](O)[C@@]12F [TRIAMCINOLONE] |  |  |  |  |  |  |  |  |  | > 30 | 
18 | CC(C)[C@H](N)C(=O)OCCOCn1cnc2c(=O)[nH]c(N)nc21 [VALACYCLOVIR] | > 30 | > 10 | > 10 | > 10 | > 30 | > 10 | > 30 | > 30 | > 30 |  | 
19 | CC[C@]12CCCN3CCc4c(n(c5ccccc45)[C@@](O)(C(=O)OC)C1)[C@@H]32 [VINCAMINE] |  |  |  |  |  |  |  |  |  | > 30 | 
20 | CCC1=C[C@@H]2CN(C1)Cc1c([nH]c3ccccc13)[C@@](C(=O)OC)(c1cc3c(cc1OC)N(C)[C@H]1[C@@](O)(C(=O)OC)[C@H](OC(C)=O)[C@]4(CC)C=CCN5CC[C@]31[C@@H]54)C2 [VINORELBINE] |  |  |  |  |  |  |  |  |  | > 30 | 
